Experimental data: PubChem BioAssay (NCI)
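Dose response: 5 concentrations. Exposure: 48 h. Format: 96-well plates. Endpoint: linear interpolation; highest concentration if not reached. GI50: concentration for 50% inhibition of growth. Definition used: TGI = concentration required for complete inhibition of growth.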

Columns and labels:
Assay in all cases: NCI-60 cell line screen, 48 h
NCI/ADR-RES ovarian = test system: NCI/ADR-RES ovarian
COLO 205 colon = test system: COLO 205 colon
ACHN renal = test system: ACHN renal
786-0 renal = test system: 786-0 renal
SK-MEL-2 melanoma = test system: SK-MEL-2 melanoma
IGROV1 ovarian = test system: IGROV1 ovarian
MOLT-4 leukemia = test system: MOLT-4 leukemia
SNB-75 CNS = test system: SNB-75 CNS
OVCAR-4 ovarian = test system: OVCAR-4 ovarian
T-47D breast = test system: T-47D breast
LOX IMVI melanoma = test system: LOX IMVI melanoma
SF-268 CNS = test system: SF-268 CNS
UACC-62 melanoma = test system: UACC-62 melanoma
OVCAR-8 ovarian = test system: OVCAR-8 ovarian
HT29 colon = test system: HT29 colon
KM12 colon = test system: KM12 colon
SR leukemia = test system: SR leukemia
UACC-257 melanoma = test system: UACC-257 melanoma

Row | SMILES | TGI (NCI/ADR-RES ovarian) [µM] | TGI (COLO 205 colon) [µM] | TGI (ACHN renal) [µM] | TGI (786-0 renal) [µM] | TGI (SK-MEL-2 melanoma) [µM] | TGI (IGROV1 ovarian) [µM] | TGI (MOLT-4 leukemia) [µM] | TGI (SNB-75 CNS) [µM] | TGI (OVCAR-4 ovarian) [µM] | TGI (T-47D breast) [µM] | TGI (LOX IMVI melanoma) [µM] | TGI (SF-268 CNS) [µM] | TGI (UACC-62 melanoma) [µM] | TGI (OVCAR-8 ovarian) [µM] | TGI (HT29 colon) [µM] | TGI (KM12 colon) [µM] | TGI (SR leukemia) [µM] | TGI (UACC-257 melanoma) [µM] | GI50 (SK-MEL-2 melanoma) [µM] | GI50 (UACC-257 melanoma) [µM]
1 | Cc1cc(C)c2c(=O)n(CN3CCC(O)(c4ccccc4)CC3)sc2n1 | > 100 | > 100 | 37.9 | 30.8 | > 100 | > 100 | 76.3 | 50.8 | 81.4 | > 100 | > 100 | > 100 | > 100 | > 100 | 98.9 | > 100 | 82.8 | – | – | –
2 | CCOP(=O)(C=C=C(C)C)OCC | > 100 | > 100 | > 100 | > 100 | > 100 | > 100 | – | > 100 | > 100 | > 100 | > 100 | > 100 | > 100 | > 100 | > 100 | > 100 | > 100 | > 100 | – | –
3 | CCOC(=O)CCC(NC(=O)c1ccc(Nc2nc3ccccc3nc2-c2cccs2)cc1)C(=O)OCC (stereo unspecified) | > 100 | > 100 | > 100 | > 100 | 94.5 | > 100 | > 100 | > 100 | > 100 | > 100 | > 100 | > 100 | > 100 | > 100 | > 100 | > 100 | > 100 | > 100 | – | –
4 | O=c1oc2ccc3ccccc3c2cc1-c1nc2ccccc2o1 | 51.7 | > 100 | 29.9 | 42.2 | 60.1 | 30 | > 79 | 40.7 | 90.4 | 39.7 | 32.8 | 48.4 | > 100 | 51.2 | 48.4 | > 63.2 | > 85.6 | 99.2 | – | –
5 | O=S(CCCl)c1c2ccccc2nc2ccccc12 (stereo unspecified) | > 100 | > 100 | > 100 | > 100 | > 100 | > 100 | > 100 | > 100 | > 100 | > 100 | > 100 | > 100 | > 100 | > 100 | > 100 | > 100 | > 100 | > 100 | – | –
6 | NS(=O)(=O)c1ccc(CNc2nc(-c3cccs3)nc3ccc(I)cc23)cc1 | 77.6 | 29.9 | 58.3 | 37.6 | 32.9 | 30.6 | 81.8 | 47.1 | 60.5 | 1.81 | 29.3 | 61.6 | 31.5 | 37.7 | 39.2 | 23.7 | 42.8 | 27.5 | 17.8 | 14
7 | O=[N+]([O-])c1cc(Cl)cc2cc(Cl)cnc12 | > 100 | > 100 | > 100 | > 100 | – | 66.8 | > 100 | 98 | > 100 | 97.2 | > 100 | > 100 | > 100 | > 100 | > 100 | – | > 100 | > 100 | – | –
8 | COC(=O)CCn1cnc2c(SC)ncnc21 | > 100 | > 100 | > 100 | > 100 | – | > 100 | > 100 | > 100 | > 100 | > 100 | > 100 | > 100 | > 100 | > 100 | > 100 | > 100 | > 100 | > 100 | – | –
9 | CCOC(=O)c1c(-c2ccc(OC)cc2)c(C#N)c(=S)n(C2OC(CO)C(O)C(O)C2O)c1-c1ccccc1 (stereo unspecified) | > 100 | > 100 | > 100 | > 100 | > 100 | > 100 | 96.5 | > 100 | > 100 | > 100 | > 100 | > 100 | > 100 | – | > 100 | > 100 | > 100 | > 100 | – | –
10 | COc1cc2c(c3c1c(=O)c1ccccc1n3C)C=CC1(CCCCC1)O2 | > 10 | > 10 | > 10 | > 10 | 9.69 | > 10 | > 10 | 8.46 | > 10 | > 10 | > 10 | > 10 | 9.86 | > 10 | > 10 | > 2.21 | 6.39 | > 10 | – | –
11 | Cc1n[nH]c(=O)n1/N=C/c1c[nH]c2ccccc12 | > 100 | > 100 | > 100 | > 100 | > 100 | > 100 | > 100 | > 100 | > 100 | > 100 | – | > 100 | > 100 | > 100 | – | > 100 | > 100 | > 100 | – | –
12 | CCCCn1c2c(n(CCCC)c1=S)-c1c(n(CCCC)c(=S)n1CCCC)SSSS2 | 71.5 | 1.68 | 7 | 19.4 | 6.8 | 4.2 | > 36.2 | 37.7 | 9.6 | 1.82 | 12.1 | 21.4 | 4.87 | 18.1 | 7.91 | > 33.1 | > 100 | 9.13 | – | –
13 | COc1cc([N+](=O)[O-])ccc1NC1=CC(=O)CCC1 | > 100 | > 100 | > 100 | > 100 | > 100 | > 100 | > 100 | > 100 | > 100 | > 100 | > 100 | > 100 | > 100 | > 100 | > 100 | > 100 | > 100 | > 100 | – | –
14 | CC(C)n1c2c([n+](C)c1/C=C/c1ccccc1)C(=O)c1ccccc1C2=O | > 100 | 0.0993 | 10.9 | 8.11 | 0.48 | 0.0688 | 0.745 | 1.48 | 1 | 0.61 | 0.971 | 1.01 | 0.644 | 1.96 | 2.18 | 0.975 | > 21 | 0.123 | – | –
15 | CC(CO)C1=CC(C#CCOCc2ccccc2)N(C(=O)Oc2ccccc2)c2ccccc21 (stereo unspecified) | 63.3 | 28.4 | 36.3 | > 100 | > 100 | > 100 | > 100 | > 100 | 20.7 | > 100 | > 100 | > 100 | 22.9 | > 100 | > 100 | 82.9 | > 100 | 88.2 | – | –
16 | CC(C)NC(=O)OCCN=C1c2ccccc2CCc2ccccc21 | 99.5 | 35.7 | 68.4 | > 100 | 34.6 | > 100 | 39.7 | > 100 | 43.1 | 66.1 | 72.7 | 80.7 | 40.8 | > 100 | 47.6 | > 100 | 53 | 46 | – | –
17 | Oc1c(C2=N[C@H]3CCCC[C@@H]3N2)ccc2ccccc12 | > 93.9 | > 100 | > 100 | > 100 | > 100 | > 100 | > 100 | > 100 | > 100 | > 100 | > 100 | > 100 | > 100 | > 100 | > 100 | > 100 | > 100 | > 100 | – | –
18 | CCOC(=O)C1=c2[nH]c3cccc4cccc(c43)n2C=C(C(C)=O)C1CC(C)=O (stereo unspecified) | > 100 | > 100 | > 100 | > 100 | > 100 | > 100 | > 100 | > 100 | > 100 | > 100 | > 100 | – | > 100 | > 100 | – | > 100 | > 100 | > 100 | – | –
19 | COC(=O)C1(Cc2ccccc2)Cc2ccc3c(c2C1=O)CCC3 (stereo unspecified) | > 100 | > 62.5 | > 100 | > 100 | 41.5 | > 100 | 69.5 | > 100 | > 92.8 | > 100 | > 64 | > 100 | > 100 | > 100 | > 89.6 | > 100 | > 73.4 | 99.1 | – | –
20 | Oc1ccc(Cn2c(-c3ccc(O)c(O)c3)nc3ccccc32)cc1O | > 100 | 31.1 | 60.2 | 29 | 39 | 66.4 | 12.4 | 39.4 | 54.1 | 45.1 | 26 | > 100 | – | 25.5 | 84.7 | 35 | 18.2 | > 100 | – | –
21 | O=C(/C=C/c1ccco1)CC(=O)/C=C/c1ccco1 | 21.7 | – | 21 | 19.2 | 22.2 | > 31.6 | 23 | > 31.6 | > 31.6 | > 31.6 | 13.8 | – | > 31.6 | > 31.6 | – | > 55.2 | 17.4 | > 100 | – | –
22 | O=C(Cc1ccc(Cl)c(Cl)c1)N(CCc1ccc(Cl)c(Cl)c1)CCN1CCCC1 | 4.73 | 3.38 | 3.28 | 3 | 3.36 | 3.27 | 2.98 | 4.31 | 5.28 | 16.1 | – | 5.5 | 3.27 | 3.82 | 3.56 | 3.67 | 2.98 | 3.51 | – | –
23 | COc1ccc2oc(C(=O)N3CC(CCl)c4ccc([N+](=O)[O-])cc43)cc2c1 (stereo unspecified) | > 100 | > 100 | > 100 | 46 | > 100 | 29.5 | – | 79.3 | > 100 | > 100 | > 100 | 53.8 | > 100 | > 100 | – | > 100 | > 100 | > 100 | – | –
24 | CCCCCCCCCCCCCCCCCCOCC(CO[P+](=O)O)OCCCCCCCCCCCCCCCCCC (stereo unspecified) | > 50 | > 50 | – | > 50 | > 50 | > 50 | > 50 | > 50 | > 50 | > 50 | > 50 | > 50 | – | > 50 | > 50 | > 50 | > 50 | > 50 | – | –
25 | O=[N+]([O-])c1cc(-[n+]2cc([O-])on2)ccc1F | 52 | 35.2 | 30.7 | 24 | 31 | 28.3 | – | 27 | 30.4 | 15.5 | 31.1 | 28.9 | 30.8 | 30.9 | 33.3 | 31.5 | > 100 | 31.6 | – | –
26 | COc1ccccc1Cn1nc(OC)c2cc([N+](=O)[O-])ccc21 | > 100 | > 100 | > 100 | > 84.7 | > 57.5 | > 100 | > 100 | 18.7 | > 100 | > 100 | > 100 | 36.9 | – | > 100 | > 100 | > 100 | > 100 | > 100 | – | –
27 | CN(C)c1nc(NN)c2c(-c3ccccc3)c(-c3ccccc3)oc2n1 | > 100 | > 100 | > 100 | > 100 | – | > 100 | > 100 | > 100 | > 100 | > 100 | > 100 | > 100 | > 100 | > 100 | > 100 | > 100 | > 100 | > 100 | – | –
